Numbers after ± are expanded uncertainties.
Assays:
[1] = for mass density / viscosity: 101.33 kPa, Liquid; for Glass transition temperature: DTA
[2] = refractive index (Na D-line) (dimensionless); settings: 101.33 kPa, Liquid, Standard Abbe refractometry

| SMILES | mass density ([1]; 298.15 K) [kg/m3] | mass density ([1]; 303.15 K) [kg/m3] | mass density ([1]; 308.15 K) [kg/m3] | mass density ([1]; 313.15 K) [kg/m3] | mass density ([1]; 318.15 K) [kg/m3] | mass density ([1]; 323.15 K) [kg/m3] | viscosity ([1]; 323.15 K) [mPa·s] | mass density ([1]; 328.15 K) [kg/m3] | viscosity ([1]; 328.15 K) [mPa·s] | mass density ([1]; 333.15 K) [kg/m3] | viscosity ([1]; 333.15 K) [mPa·s] | mass density ([1]; 338.15 K) [kg/m3] | viscosity ([1]; 338.15 K) [mPa·s] | mass density ([1]; 343.15 K) [kg/m3] | viscosity ([1]; 343.15 K) [mPa·s] | mass density ([1]; 348.15 K) [kg/m3] | viscosity ([1]; 348.15 K) [mPa·s] | mass density ([1]; 353.15 K) [kg/m3] | viscosity ([1]; 353.15 K) [mPa·s] | Glass transition temperature [1] [°C] | other results |
| --- | --- | --- | --- | --- | --- | --- | --- | --- | --- | --- | --- | --- | --- | --- | --- | --- | --- | --- | --- | --- | --- |
| C=CC[n+]1ccn(CCC#N)c1.[Cl-] [3-allyl-1-(2-cyanoethyl)-1H-imidazolium chloride] | 1170.79 ± 2.2 | 1167.79 ± 2.2 | 1164.8 ± 2.2 | 1161.84 ± 2.1 | 1158.88 ± 2.1 | 1155.93 ± 2.1 | 1314 ± 120 | 1152.91 ± 2.1 | 873 ± 68 | 1150.01 ± 2.1 | 599 ± 40 | 1147.11 ± 2 | 423 ± 25 | 1144.22 ± 2 | 306 ± 15 | 1141.32 ± 2 | 226 ± 9 | 1138.42 ± 2 | 171 ± 6 | -1.48 ± 4 | mass density ([1]; 293.15 K): 1173.79 ± 2.2 kg/m3; viscosity ([1]; 298.15 K): 17544 ± 2800 mPa·s; viscosity ([1]; 303.15 K): 10294 ± 1500 mPa·s; viscosity ([1]; 308.15 K): 5761 ± 740 mPa·s; viscosity ([1]; 313.15 K): 3316 ± 380 mPa·s; viscosity ([1]; 318.15 K): 2046 ± 200 mPa·s; refractive index ([2]; 293.15 K): 1.54731 ± 0.00043; refractive index ([2]; 298.15 K): 1.54603 ± 0.00043; refractive index ([2]; 303.15 K): 1.54478 ± 0.00043; refractive index ([2]; 308.15 K): 1.54339 ± 0.00043; refractive index ([2]; 313.15 K): 1.54208 ± 0.00043; refractive index ([2]; 318.15 K): 1.54072 ± 0.00043; refractive index ([2]; 323.15 K): 1.53945 ± 0.00043; refractive index ([2]; 328.15 K): 1.53813 ± 0.00043; refractive index ([2]; 333.15 K): 1.53682 ± 0.00043 |
| N#CCCn1cc[n+](Cc2ccccc2)c1.[Cl-] [1-(2-cyanoethyl)-3-(phenylmethyl)-1H-imidazolium chloride] | 1202.67 ± 2.5 | 1200.28 ± 2.5 | 1197.33 ± 2.5 | 1194.37 ± 2.5 | 1191.42 ± 2.4 | 1188.5 ± 2.4 | 95152 ± 19000 | 1185.59 ± 2.4 | 42665 ± 7800 | 1182.69 ± 2.4 | 20463 ± 3300 | 1179.8 ± 2.4 | 10434 ± 1500 | 1176.88 ± 2.3 | 5635 ± 720 | 1174.01 ± 2.3 | 3190 ± 360 | 1171.16 ± 2.3 | 1958 ± 190 | 16.21 ± 4 | – |
| N#CCCn1cc[n+](CCO)c1.[Cl-] [1-(2-cyanoethyl)-3-(2-hydroxyethyl)-1H-imidazolium chloride] | 1255.05 ± 3.5 | 1252.2 ± 3.5 | 1249.38 ± 3.5 | 1246.58 ± 3.5 | 1243.81 ± 3.4 | 1241.05 ± 3.4 | 6721 ± 890 | 1238.32 ± 3.4 | 4213 ± 500 | 1235.59 ± 3.4 | 2708 ± 290 | 1232.86 ± 3.3 | 1817 ± 180 | 1230.13 ± 3.3 | 1245 ± 110 | 1227.41 ± 3.3 | 873 ± 68 | 1224.57 ± 3.3 | 632 ± 44 | 14.50 ± 4 | mass density ([1]; 293.15 K): 1257.9 ± 3.6 kg/m3; viscosity ([1]; 303.15 K): 62813 ± 12000 mPa·s; viscosity ([1]; 308.15 K): 33772 ± 5900 mPa·s; viscosity ([1]; 313.15 K): 19046 ± 3100 mPa·s; viscosity ([1]; 318.15 K): 11119 ± 1600 mPa·s; refractive index ([2]; 293.15 K): 1.54996 ± 0.00052; refractive index ([2]; 298.15 K): 1.54847 ± 0.00052; refractive index ([2]; 303.15 K): 1.54699 ± 0.00052; refractive index ([2]; 308.15 K): 1.54554 ± 0.00052; refractive index ([2]; 313.15 K): 1.54412 ± 0.00052; refractive index ([2]; 318.15 K): 1.54277 ± 0.00052; refractive index ([2]; 323.15 K): 1.54133 ± 0.00052; refractive index ([2]; 328.15 K): 1.53985 ± 0.00052; refractive index ([2]; 333.15 K): 1.53847 ± 0.00052 |
| CCCC[n+]1ccn(CCC#N)c1.[Cl-] [3-butyl-1-(2-cyanoethyl)-1H-imidazol-3-ium chloride] | 1129.35 ± 3.2 | 1126.15 ± 3.2 | 1122.93 ± 3.2 | 1119.66 ± 3.1 | 1116.49 ± 3.1 | 1113.34 ± 3.1 | 314 ± 16 | 1110.18 ± 3 | 224 ± 10 | 1107.03 ± 3 | 164 ± 6 | 1103.87 ± 3 | 123 ± 3 | 1100.72 ± 2.9 | 94 ± 2 | 1097.57 ± 2.9 | 73 ± 1 | 1094.44 ± 2.9 | 58 ± 1 | -5.23 ± 4 | mass density ([1]; 293.15 K): 1132.55 ± 3.3 kg/m3; viscosity ([1]; 293.15 K): 4707 ± 580 mPa·s; viscosity ([1]; 298.15 K): 2637 ± 280 mPa·s; viscosity ([1]; 303.15 K): 1612 ± 150 mPa·s; viscosity ([1]; 308.15 K): 1020 ± 84 mPa·s; viscosity ([1]; 313.15 K): 668 ± 48 mPa·s; viscosity ([1]; 318.15 K): 451 ± 27 mPa·s; refractive index ([2]; 293.15 K): 1.52575 ± 0.00062; refractive index ([2]; 298.15 K): 1.5243 ± 0.00062; refractive index ([2]; 303.15 K): 1.52287 ± 0.00062; refractive index ([2]; 308.15 K): 1.52139 ± 0.00062; refractive index ([2]; 313.15 K): 1.51992 ± 0.00062; refractive index ([2]; 318.15 K): 1.51846 ± 0.00062; refractive index ([2]; 323.15 K): 1.51707 ± 0.00062; refractive index ([2]; 328.15 K): 1.5156 ± 0.00062; refractive index ([2]; 333.15 K): 1.51418 ± 0.00062 |

— the NIST ThermoML archive (doi:10.1021/je200710t)
